Measured values reported in patent US10780090B2, “Heteroaryl compounds useful as inhibitors of SUMO activating enzyme” (Millennium Pharmaceuticals, Inc., priority 2014, dated 2020).

Target: recombinant human SAE enzyme (Homo sapiens (Human), UniProt Q9UBT2)
Assay: SAE HTRF enzyme assay
Format: biochemical
Details: for inhibition at 0.111 µM: read-out: Percent Inhibition
Method in brief: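 HTRF read-out using Eu-cryptate anti-Flag and allophycocyanin anti-GST antibodies, added with EDTA stop buffer and read after 2 h at 24 °C. The preceding reaction ran 105 min at 24 °C: 0.11 nM recombinant SAE, 0.5 μM ATP, Sumo-Flag, Ubc9-GST, pH 7.5. Values given as single-concentration inhibition or IC50.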

[1] = SAE inhibition at compound concentration 0.111 μM
[2] = SAE inhibition, class symbols, legend in nM

recombinant human SAE enzyme, sequence (Q9UBT2 whole entry): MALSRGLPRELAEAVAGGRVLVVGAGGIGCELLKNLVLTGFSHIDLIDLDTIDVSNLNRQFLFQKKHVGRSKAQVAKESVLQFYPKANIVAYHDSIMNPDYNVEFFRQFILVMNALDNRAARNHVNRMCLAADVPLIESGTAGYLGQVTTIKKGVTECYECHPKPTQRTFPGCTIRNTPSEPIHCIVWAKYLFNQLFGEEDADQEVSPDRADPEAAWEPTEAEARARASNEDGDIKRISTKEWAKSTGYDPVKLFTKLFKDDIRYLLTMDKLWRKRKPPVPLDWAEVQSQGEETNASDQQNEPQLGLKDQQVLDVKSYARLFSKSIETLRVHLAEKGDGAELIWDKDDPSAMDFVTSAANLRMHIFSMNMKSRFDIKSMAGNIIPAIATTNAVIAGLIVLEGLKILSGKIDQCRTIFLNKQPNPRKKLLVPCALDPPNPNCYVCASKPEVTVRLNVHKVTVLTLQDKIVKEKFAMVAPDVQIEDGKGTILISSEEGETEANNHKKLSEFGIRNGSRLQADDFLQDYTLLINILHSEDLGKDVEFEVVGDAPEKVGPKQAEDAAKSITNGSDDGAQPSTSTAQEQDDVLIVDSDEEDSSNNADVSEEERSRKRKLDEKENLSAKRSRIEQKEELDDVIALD
recombinant human SAE enzyme, sequence (Q9UBE0 whole entry partner): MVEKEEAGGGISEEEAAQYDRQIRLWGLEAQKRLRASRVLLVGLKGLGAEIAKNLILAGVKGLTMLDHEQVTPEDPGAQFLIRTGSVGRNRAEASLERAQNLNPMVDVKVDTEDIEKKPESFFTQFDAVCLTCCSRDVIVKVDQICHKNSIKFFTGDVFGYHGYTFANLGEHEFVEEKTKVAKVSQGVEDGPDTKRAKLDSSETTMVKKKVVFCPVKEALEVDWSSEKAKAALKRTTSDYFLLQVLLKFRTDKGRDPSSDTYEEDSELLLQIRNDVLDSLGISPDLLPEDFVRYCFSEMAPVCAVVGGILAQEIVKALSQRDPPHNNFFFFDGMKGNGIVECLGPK

Structure (SMILES)	Percent Inhibition [1] [%]	IC50 [2] [nM]	inhibition at 0.111 µM (Concentration 0.111 μM) [%]	IC50 (class symbols A/B/C) [nM]	Percent Inhibition (Concentration 0.111 μM)
NS(=O)(=O)OCC1CC(Nc2ncncc2C(=O)c2cc(C3OCCc4ccc(Cl)cc43)c(Cl)s2)CC1O (mixture of isomers) [I-282, [(1R,2S,4R)-4-{[5-({5-chloro-4-[(1R)-7-chloro-3,4-dihydro-1H-isochromen-1-yl]-2-thienyl}carbonyl)pyrimidin-4-yl]amino}-2-hydroxycyclopentyl]methyl sulfamate and [(1R,2S,4R)-4-{[5-({5-chloro-4-[(1S)-7-chloro-3,4-dihydro-1H-isochromen-1-yl]-2-thienyl}carbonyl)pyrimidin-4-yl]amino}-2-hydroxycyclopentyl]methyl sulfamate]	100	< 10			
NS(=O)(=O)OC[C@H]1C[C@@H](Nc2ncncc2C(=O)c2cc([C@@H]3OCC(=O)c4ccccc43)cs2)C[C@@H]1O (mixture of isomers) [I-342, [(1R,2S,4R)-2-hydroxy-4-{[5-({4-[(1R)-4-oxo-3,4-dihydro-1H-isochromen-1-yl]-2-thienyl}carbonyl)pyrimidin-4-yl]amino}cyclopentyl]methyl sulfamate and [(1R,2S,4R)-2-hydroxy-4-{[5-({4-[(1S)-4-oxo-3,4-dihydro-1H-isochromen-1-yl]-2-thienyl}carbonyl)pyrimidin-4-yl]amino}cyclopentyl]methyl sulfamate]	93	< 10			
NS(=O)(=O)OC[C@H]1C[C@@H](Nc2ncncc2C(=O)c2cc(Cc3cncc(Cl)c3)cs2)C[C@@H]1O [I-210, [(1R,2S,4R)-4-{[5-({4-[(5-chloropyridin-3-yl)methyl]-2-thienyl}carbonyl)pyrimidin-4-yl]amino}-2-hydroxycyclopentyl]methyl sulfamate]			50	100 to 1000	
COCc1sc(C(=O)c2cncnc2N[C@@H]2C[C@H](COS(N)(=O)=O)[C@@H](O)C2)cc1C(O)c1cccc(Cl)c1 (single isomer, unassigned) [I-7b, [(1R,2S,4R)-4-{[5-({4-[(R)-(3-chlorophenyl)(hydroxy)methyl]-5-(methoxymethyl)-2-thienyl}carbonyl)pyrimidin-4-yl]amino}-2-hydroxycyclopentyl]methyl sulfamate or [(1R,2S,4R)-4-{[5-({4-[(S)-(3-chlorophenyl)(hydroxy)methyl]-5-(methoxymethyl)-2-thienyl}carbonyl)pyrimidin-4-yl]amino}-2-hydroxycyclopentyl]methyl sulfamate]				< 10	98
NS(=O)(=O)OC[C@H]1C[C@@H](Nc2ncncc2C(=O)c2cc([C@@H]3OCCc4ccc(Br)cc43)cs2)C[C@@H]1O (single isomer, unassigned) [I-268b, [(1R,2S,4R)-4-{[5-({4-[(1R)-7-bromo-3,4-dihydro-1H-isochromen-l-yl]-2-thienyl}carbonyl)pyrimidin-4-yl]amino}-2-hydroxycyclopentyl]methyl sulfamate or [(1R,2S,4R)-4-{([5-({4-[(1S)-7-bromo-3,4-dihydro-1H-isochromen-1-yl]-2-thienyl}carbonyl)pyrimidin-4-yl]amino}-2-hydroxycyclopentyl]methyl sulfamate]				< 10	102
C[C@@](O)(c1cccc(Cl)c1)c1cc(C(=O)c2cncnc2N[C@@H]2C[C@H](COS(N)(=O)=O)[C@@H](O)C2)sc1Cl (mixture of isomers) [I-102, [(1R,2S,4R)-4-{[5-({5-Chloro-4-[(1S)-1-(3-chlorophenyl)-1-hydroxyethyl]-2-thienyl}carbonyl)pyrimidin-4-yl]amino}-2-hydroxycyclopentyl]methyl sulfamate and [(1R,2S,4R)-4-{[5-({5-Chloro-4-[(1R)-1-(3-chlorophenyl)-1-hydroxyethyl]-2-thienyl}carbonyl)pyrimidin-4 yl]amino}-2-hydroxycyclopentyl]methyl sulfamate]				< 10	94
CC(c1cccc(Cl)c1)c1csc(C(=O)c2cncnc2N[C@@H]2C[C@H](COS(N)(=O)=O)[C@@H](O)C2)c1 (single isomer, unassigned) [I-117a, [(1R,2S,4R)-4-{[5-({4-[(1S)-1-(3-chlorophenyl)ethyl]-2-thienyl}carbonyl)pyrimidin-4-yl]amino}-2-hydroxycyclopentyl]methyl sulfamate or [(1R,2S,4R)-4-{[5-({4-[(1R)-1-(3-chlorophenyl)ethyl]-2-thienyl}carbonyl)pyrimidin-4-yl]amino}-2-hydroxycyclopentyl]methyl sulfamate]				10 to 100	73
CN1Cc2ccc(Cl)cc2[C@@H]1c1csc(C(=O)c2cncnc2N[C@@H]2C[C@H](COS(N)(=O)=O)[C@@H](O)C2)c1 (single isomer, unassigned) [I-265b, [(1R,2S,4R)-4-{[5-({4-[(1R)-6-chloro-2-methyl-2,3-dihydro-1H-isoindol-1-yl]-2-thienyl}carbonyl)pyrimidin-4-yl]amino}-2-hydroxycyclopentyl]methyl sulfamate or [(1R,2S,4R)-4-{[5-({4-[(1S)-6-chloro-2-methyl-2,3-dihydro-1H-isoindol-1-yl]-2-thienyl}carbonyl)pyrimidin-4-yl]amino}-2-hydroxycyclopentyl]methyl sulfamate]				10 to 100	72
Cc1sc(C(=O)c2cncnc2N[C@@H]2C[C@H](COS(N)(=O)=O)[C@@H](O)C2)cc1Cn1cccn1 [I-109, {(1R,2S,4R)-2-Hydroxy-4-[(5-{[5-methyl-4-(1H-pyrazol-1-ylmethyl)-2-thienyl]carbonyl}pyrimidin-4-yl)amino]cyclopentyl)methyl sulfamate]			96	< 10	
NS(=O)(=O)OC[C@H]1C[C@@H](Nc2ncncc2C(=O)c2cc([C@@H]3OCCc4ccc(Cl)cc43)c(Cl)s2)C[C@@H]1O (single isomer, unassigned) [I-282a, [(1R,2S,4R)-4-{[5-({5-chloro-4-[(1R)-7-chloro-3,4-dihydro-1H-isochromen-1-yl]-2-thienyl}carbonyl)pyrimidin-4-yl]amino}-2-hydroxycyclopentyl]methyl sulfamate or [(1R,2S,4R)-4-{[5-({5-chloro-4-[(1S)-7-chloro-3,4-dihydro-1H-isochromen-1-yl]-2-thienyl}carbonyl)pyrimidin-4-yl]amino}-2-hydroxycyclopentyl]methyl sulfamate]	37	100 to 1000			
NS(=O)(=O)OC[C@H]1C[C@@H](Nc2ncncc2C(=O)c2cc([C@@H](O)c3cccc(Br)c3)c(Cl)s2)C[C@@H]1O (single isomer, unassigned) [I-16a, [(1R,2S,4R)-4-{[5-({4-[(S)-(3-Bromophenyl)(hydroxy)methyl-5-chloro-2-thienyl}carbonyl)pyrimidin-4-yl]amino}-2-hydroxycyclopentyl]methyl sulfamate or [(1R,2S,4R)-4-{[5-({4-[(R)-(3-Bromophenyl)(hydroxy)methyl]-5-chloro-2-thienyl}carbonyl)pyrimidin-4-yl]amino}-2-hydroxycyclopentyl]methyl sulfamate]				< 10	99
NS(=O)(=O)OC[C@H]1C[C@@H](Nc2ncncc2C(=O)c2cc(CCc3ccccc3)cs2)C[C@@H]1O [I-108, {(1R,2S,4R)-2-Hydroxy-4-[(5-{[4-(2-phenylethyl)-2-thenyl]carbonyl}pyrimidin-4-yl)amino]cyclopentyl}methyl sulfamate]			96		
NS(=O)(=O)OC[C@H]1C[C@@H](Nc2ncncc2C(=O)c2cc(Cc3ccccc3)c(Cl)s2)[C@@H](F)[C@@H]1O [I-162, [(1R,2R,3R,4R)-4-({5-[(4-Benzyl-5-chloro-2-thienyl)carbonyl]pyrimidin-4-yl}amino) 3-fluoro-2-hydroxycyclopentyl]methyl sulfamate]			91	10 to 100	
Cc1sc(C(=O)c2cncnc2N[C@@H]2C[C@H](COS(N)(=O)=O)[C@@H](O)C2)cc1C1OCCc2oc(Cl)cc21 (single isomer, unassigned) [I-298b, [(1R,2S,4R)-4-{[5-({4-[(4R)-2-chloro-6,7-dihydro-4H-furo[3,2-c]pyran-4-yl]-5-methyl-2-thienyl}carbonyl)pyrimidin-4-yl]amino}-2-hydroxycyclopentyl]methyl sulfamate or [(1R,2S,4R)-4-{[5-({4-[(4S)-2-chloro-6,7-dihydro-4H-furo[3,2-c]pyran-4-yl]-5-methyl-2-thienyl}carbonyl)pyrimidin-4-yl]amino}-2-hydroxycyclopentyl]methyl sulfamate]	98	< 10			
CCOc1ccccc1OCc1csc(C(=O)c2cncnc2N[C@@H]2C[C@H](COS(N)(=O)=O)[C@@H](O)C2)c1 [I-156, [(1R,2S,4R)-4-{[5-({4-[(2-ethoxyphenoxy)methyl]-2-thienyl}carbonyl)pyrimidin-4-yl]amino}-2-hydroxycyclopentyl]methyl sulfamate]			92	< 10	
C[C@](O)(c1csc(C(=O)c2cncnc2N[C@@H]2C[C@H](COS(N)(=O)=O)[C@@H](O)[C@H]2O)c1)c1cccc(Br)n1 (single isomer, unassigned) [I-1a, [(1R,2R,3S,4R)-4-{[5-({4-[(1S)-1-(6-bromopyridin-2-yl)-1-hydroxyethyl]-2-thienyl}carbonyl)pyrimidin-4-yl]amino}-2,3-dihydroxycyclopentyl]methyl sulfamate or [(1R,2R,3S,4R)-4-{[5-({4-[(1R)-1-(6-bromopyridin-2-yl)-1-hydroxyethyl]-2-thienyl}carbonyl)pyrimidin-4-yl]amino}-2,3-dihydroxycyclopentyl]methyl sulfamate]				< 10	96
